According to paper PMC10215404, “Effect of Indole-Containing Pyrazino[2,1-b]quinazoline-3,6-diones in the Virulence of Resistant Bacteria” (Antibiotics, 2023):
Converted amounts (≈) assume the structure as drawn. “And” between values parts separate entries of the source, which are not always exact repeats. Equal values may be shown once. Read-outs that look alike come from different tables or passages of the source.

Assays:
E. coli AG100 [1] = assay: Real-time ethidium bromide accumulation assay (efflux pump inhibition); details: minute 60
E. coli AG100A [2] = assay: as above; details: minute 60
E. coli SA/2 = tested on: E. coli SA/2; parameters: method as in PMID 34203998; details: cited from earlier work
E. coli AG100A [3] = assay: MIC determination, broth microdilution; assay type: cell-based; details: Escherichia coli
From the text: (§1) Both reference and resistant strains used in this work were employed by our group for the screening of different families of compounds, such as xanthones and thioxanthones.

E. coli AG100 [4] = assay: MIC determination, broth microdilution; assay type: cell-based; details: Escherichia coli
From the text: as §1

S. aureus MRSA 272123 = assay: MIC determination, broth microdilution; assay type: cell-based; details: Staphylococcus aureus
From the text: as §1

E. coli AG100 [5] = assay: Biofilm formation, crystal violet method; assay type: cell-based, Escherichia coli; details: 50 μM
Protocol: (§2) The antibiofilm effect of the tested compounds was evaluated using the crystal violet method on E. coli AG100, E. coli AG100A, and MRSA 272123. […] CCCP was used as a positive control.
(§3) The biofilm-forming ability of the S. aureus strains was studied in 96-well microtiter plates using TSB broth in the presence of compounds. The biofilm-forming ability of the E. coli strains was studied in 96-well microtiter plates using LB broth in the presence of the compounds. […] The final volume was 200 μL in each well. The positive control was CCCP at 50 µM. Plates were incubated for 48 h at 30 °C with gentle shaking at 100 rpm. After the incubation period, the medium was removed and the plate was washed with water to remove unattached cells. A total of 200 μL CV (0.1% [v/v]) was added to each wells and incubated for 15 min at room temperature. CV was discarded from the wells and the plate was washed with water again. Then, 200 μL of 70% ethanol was added to each well and the biofilm formation was determined by measuring the OD at 600 nm using a Multiscan EX ELISA plate reader (Thermo Labsystems, Cheshire, WA, USA). The antibiofilm effect of the compounds was expressed as the percentage (%) decrease in biofilm formation.

MRSA 272123 = assay: Biofilm formation, crystal violet method; assay type: cell-based, Staphylococcus aureus
Protocol: as §2, §3

Staphylococcus aureus = details: cited from earlier work
S. aureus 272123 = assay: Real-time ethidium bromide accumulation assay (efflux pump inhibition); details: minute 60
E. faecalis ATCC 29212 = assay: MIC determination, broth microdilution; assay type: cell-based; details: Enterococcus faecalis
From the text: as §1

E. faecalis B3/101 (VRE) = assay: MIC determination, broth microdilution; assay type: cell-based; details: Enterococcus faecalis
From the text: as §1

E. faecalis PFi/2 = assay: MIC determination, broth microdilution; assay type: cell-based; details: Enterococcus faecalis
From the text: as §1

E. faecalis PSi/107 = assay: MIC determination, broth microdilution; assay type: cell-based; details: Enterococcus faecalis
From the text: as §1

S. aureus 66/1 (MRSA) = assay: MIC determination, broth microdilution; assay type: cell-based; details: Staphylococcus aureus
From the text: as §1

S. aureus ATCC 29213 = assay: MIC determination, broth microdilution; assay type: cell-based; details: Staphylococcus aureus
From the text: as §1

[6] = tested on: NIH/3T3 mouse fibroblast cell line; assay: Cytotoxicity assay (MTT); assay type: cell-based; details: NIH3T3, 24 h
Protocol: The effects of increasing concentrations of compounds on cell growth were tested in 96-well flat-bottomed microtiter plates. The compounds were diluted in a volume of 100 μL of medium. Afterwards, 1 × 10^4 cells in 100 μL of medium were added to each well, with the exception of the medium control. In the case of NIH/3T3 cells, the compounds were added after seeding the cells at 37 °C overnight. The plates were incubated at 37 °C for 24 h; after the incubation period, 20 μL of MTT solution (from a 5 mg/mL stock) was added to each well. After 4 h of incubation at 37 °C, 100 μL of SDS solution (10% in 0.01 M HCl) was added to each well and the plates were incubated at 37 °C overnight. Cell growth was determined by measuring the optical density (OD) at 540 nm (ref. 630 nm) with a Multiscan EX ELISA reader. Inhibition of cell growth was determined as IC50 values, defined as the inhibitory dose that reduced the growth of the cells exposed to the tested compounds by 50%. IC50 values and the SD of triplicate experiments were calculated by using GraphPad Prism software version 5.00 for Windows with a nonlinear regression curve fit (GraphPad Software, San Diego, CA, USA; www.graphpad.com, accessed on 14 July 2022). Doxorubicin (from a 2 mg/mL stock solution, Teva Pharmaceuticals) was used as the positive control.

E. faecalis B3/101 = assay: Antibiotic potentiation with vancomycin, broth microdilution; details: E. faecalis B3/101; compound at 16 µg/mL
[7] = tested on: E. coli AG100, E. coli AG100A, and MRSA 272123; assay: Biofilm formation, crystal violet method (overall statement); assay type: cell-based
Protocol: as §2, §3

[8] = tested on: S. aureus, including the MRSA strains; assay: MIC, summary over S. aureus strains; details: Staphylococcus aureus
Protocol: (§4) The MIC of each compound was determined by the broth microdilution method, in accordance with the recommendations of the CLSI [48]. Two-fold serial dilutions of the compounds were prepared in Mueller–Hinton Broth 2 (MHB2–Sigma-Aldrich, St. Louis, MO, USA). Sterility and growth controls were included in each assay. Quality controls were performed with erythromycin for the Gram-positive bacterial strains and with colistin for the Gram-negative bacterial strains. Purity check and colony counts of the inoculum suspensions were also performed to ensure that the final inoculum density closely approximated 5 × 10^5 CFU/mL. The MIC was determined as the lowest concentration at which no visible growth was observed. […] The reported MIC results arose from at least three independent experiments.

[9] = tested on: E. faecalis including VRE; assay: MIC, summary over E. faecalis strains; details: Enterococcus faecalis
Protocol: as §4

[10] = ATCC29213, value in parentheses
[11] = ATCC29212, value in parentheses

Row | SMILES | RFI ± SD (E. coli AG100 [1]; compound at 50 μM) | RFI ± SD (E. coli AG100A [2]; compound at 50 μM) | MIC (S. aureus MRSA 272123) | RFI ± SD (S. aureus 272123; compound at 50 μM) | MIC (E. faecalis ATCC 29212; ATCC29212) | MIC (E. faecalis B3/101 (VRE)) | MIC (E. faecalis PFi/2) | MIC (E. faecalis PSi/107) | MIC (S. aureus 66/1 (MRSA)) | MIC (S. aureus ATCC 29213; ATCC29213) | IC50 [6] | RFI ± SD (E. coli AG100 [1]; compound at 100 μM) | RFI ± SD (E. coli AG100A [2]; compound at 100 μM) | MIC (S. aureus ATCC 29213; [10]) | other results
1 | N#CC(C#N)=NNc1cccc(Cl)c1 [CCCP, carbonyl cyanide m-chlorophenyl hydrazone, reference compound] | 1.56 ± 0.01 | 1.13 ± 0.02 |  |  |  |  |  |  |  |  |  |  |  |  | 
2 | CO/N=C(\C(=O)N[C@@H]1C(=O)N2C(C(=O)O)=C(COC(C)=O)CS[C@H]12)c1csc(N)n1 [CTX, cefotaxime] |  |  |  |  |  |  |  |  |  |  |  |  |  |  | MIC (E. coli SA/2): 512 µg/mL (≈ 1120 µM)
3 | CC(C)C[C@@H]1NC(=O)[C@@H](Cc2c[nH]c3ccccc23)n2c1nc1c(Cl)cc(Cl)cc1c2=O [Compound 4] | 0.01 ± 0.02 | 0.26 ± 0.07 | > 100 µM | 1.13 ± 0.20 |  |  |  |  |  |  |  |  |  |  | MIC (E. coli AG100A [3]): > 100 µM; MIC (E. coli AG100 [4]): > 100 µM; antibiofilm effect (in words) (E. coli AG100 [5]): reduced the amount of biofilm; decrease in biofilm formation (MRSA 272123): 91%; MIC (Staphylococcus aureus; resistant strain of S. aureus): 8 µg/mL (≈ 17 µM); MIC (Staphylococcus aureus; sensitive strain of S. aureus): 4 µg/mL (≈ 8.52 µM)
4 | CC(C)C[C@@H]1NC(=O)[C@@H](Cc2c[nH]c3ccccc23)n2c1nc1ccc(F)cc1c2=O [Compound 12a, (1S,4R)-4-((1H-indol-3-yl)methyl)-8-fluoro-1-isobutyl-1,2-dihydro-6H-pyrazino[2,1-b]quinazoline-3,6(4H)-dione] | −0.17 ± 0.02 |  | > 100 µM | 0.63 ± 0.04 | > 100 µM | 77 µM and 32 µg/mL | > 100 µM | > 100 µM | 77 µM and 32 µg/mL | > 100 µM | 52.2 ± 0.75 µM | 2.45 ± 0.26 | 0.59 ± 0.03 |  | antibiofilm effect (in words) (E. coli AG100 [5]): reduced the amount of biofilm; MIC of vancomycin in combination with the compound (E. faecalis B3/101): 256 µg/mL; RFI ± SD (S. aureus 272123; compound at 100 μM): 1.03 ± 0.02
5 | CC(C)C[C@@H]1NC(=O)[C@@H](Cc2c[nH]c3ccccc23)n2c1nc1cc(F)ccc1c2=O [Compound 12b, (1S,4R)-4-((1H-indol-3-yl)methyl)-9-fluoro-1-isobutyl-1,2-dihydro-6H-pyrazino[2,1-b]quinazoline-3,6(4H)-dione] | −0.07 ± 0.06 |  | 100 µM and 41.8 µg/mL | 0.96 ± 0.07 | > 100 µM | 38 µM and 16 µg/mL | > 100 µM | > 100 µM | 77 µM and 32 µg/mL | 77 µM | 58 ± 1.58 µM | 1.47 ± 0.12 | 0.77 ± 0.17 | 32 µg/mL | 
6 | CC(C)C[C@@H]1NC(=O)[C@H](Cc2c[nH]c3cc(F)ccc23)n2c1nc1c(Cl)cc(Cl)cc1c2=O [Compound 12c] | 0.24 ± 0.16 |  | 12.5 µM and 6.1 µg/mL |  | 33 to 66 µM | 33 µM and 16 µg/mL | > 100 µM | > 100 µM | 33 µM and 16 µg/mL | 33 µM | 46.1 ± 0.66 µM | 3.60 ± 0.01 | 4.40 ± 1.78 | 16 µg/mL | MIC (E. faecalis ATCC 29212; [11]): 16 to 32 µg/mL; antibiofilm capacity (in words) [7]: did not show any relevant activity; RFI ± SD (S. aureus 272123; compound at 6.25 μM (MIC/2)): 0.49 ± 0.01
7 | CC(C)C[C@@H]1NC(=O)[C@H](Cc2c[nH]c3c(Cl)cccc23)n2c1nc1c(Cl)cc(Cl)cc1c2=O [Compound 12d, (1S,4S)-8,10-dichloro-4-((7-chloro-1H-indol-3-yl)methyl)-1-isobutyl-1,2-dihydro-6H-pyrazino[2,1-b]quinazoline-3,6(4H)-dione] |  |  | 25 µM and 12.6 µg/mL |  | 64 µM | 64 µM and 32 µg/mL | > 100 µM | > 100 µM | 16 µM and 8 µg/mL | 32 µM | 47.2 ± 1.55 µM | 0.32 ± 0.10 | 0.23 ± 0.05 | 16 µg/mL | MIC (E. faecalis ATCC 29212; [11]): 32 µg/mL; antibiofilm capacity (in words) [7]: did not show any relevant activity; MIC [8]: 16 to 32 µM (≈ 8.06 to 16.1 µg/mL); MIC [9]: 64 µM (≈ 32.2 µg/mL); RFI ± SD (S. aureus 272123; compound at 12.5 μM): 0.34 ± 0.01
8 | CC(C)C[C@@H]1NC(=O)[C@@H](Cc2c[nH]c3ccccc23)n2c1nc1ccc(I)cc1c2=O [Compound 13a] | 0.38 ± 0.01 | 0.48 ± 0.58 | > 100 µM | 2.39 ± 0.09 |  |  |  |  |  |  |  |  |  |  | decrease in biofilm formation (MRSA 272123): 91%
